Values after ≈ are worked out from the molar mass of the structure shown.

The nature of data set [1]: Plasma protein binding test, dog. It counts as in vitro ADME. On the procedure:
(§1) • 1. Test compound and control compound were dissolved in dimethyl sulfoxide (DMSO) to achieve 10 mM stock solutions. DMSO working solutions were prepared at 400 μM. To prepare the loading matrix, compound working solutions (5 μL) were added in a 1:200 ratio to blank matrix (995 μL), and mixed thoroughly. • 2. To prepare the time zero (TO) samples to be used for recovery determination, 50 μL aliquots of loading matrix were transferred in triplicate to the sample collection plate. The samples were immediately matched with opposite blank buffer to obtain a final volume of 100 μL of 1:1 matrix/dialysis buffer (v/v) in each well. 500 μL of stop solution were added to these TO samples. They were then stored at 2-8° C. pending further processes along with other post-dialysis samples. • 3. To load the dialysis device, an aliquot of 150 μL of the loading matrix was transferred to the donor side of each dialysis well in triplicate, and 150 μL of the dialysis buffer was loaded to the receiver side of the well. The dialysis plate was placed in a humidified incubator at 37° C. with 5% CO2 on a shaking platform that rotated slowly (about 100 rpm) for 4 hours • 4. At the end of the dialysis, aliquots of 50 μL of samples were taken from both the buffer side and the matrix side of the dialysis device. These samples were transferred into new 96-well plates. Each sample was mixed with an equal volume of opposite blank matrix (buffer or matrix) to reach a final volume of 100 μL of 1:1 matrix/dialysis buffer (v/v) in each well. All samples were further processed by adding 500 μL of stop solution containing internal standards. The mixture was vortexed and centrifuged at 4000 rpm for about 20 minutes. An aliquot of 100 μL of supernatant of all the samples was then removed for LC-MS/MS analysis • 5. The single blank samples were prepared by transferring […] of blank matrix to a 96 well plate and adding 50 μL of blank PBS buffer to each well. The blank plasma must match the species of plasma used in the plasma side of the well. […]
(§2) The % Unbound and % Bound were calculated using the following equations: […]

Data set [2] in a line: Kinetic solubility test. It counts as physicochemical. As to conditions: for kinetic solubility (in words): conclusion from Table 6; for solubility kinetic at 2 h: phosphate buffer, aqueous buffer, kinetic from dmso stock, 50 mM PB pH 7.4. On the procedure:
• 1. 10 μL of test and control compounds (10 mM) in DMSO was added into lower chambers of Whatman mini-uniprep vials, respectively. • 2. Added 490 μL of 50 mM PB (pH 7.4) into lower chambers of the Whatman mini-uniprep vials, respectively. • 3. […] Shook the mini-uniprep vials on a Barnstead shaker for 2 hours at room temperature at the speed of 800 rpm. • 5. Centrifuged 20 minutes (e.g. 4000 rpm) • 6. Compressed mini-unipreps to prepare the filtrates for injection into UPLC system to calculate the concentration with standard curve.

The nature of data set [3]: Plasma protein binding test, human. Format: in vitro ADME. As to conditions: for plasma protein binding (in words): conclusion from Table 7, all species tested; for fraction unbound at 4 h, 2 μM: human plasma. As to the method:
• 1. Test compound and control compound were dissolved in dimethyl sulfoxide (DMSO) to achieve 10 mM stock solutions. DMSO working solutions were prepared at 400 μM. To prepare the loading matrix, compound working solutions (5 μL) were added in a 1:200 ratio to blank matrix (995 μL), and mixed thoroughly. • 2. To prepare the time zero (TO) samples to be used for recovery determination, 50 μL aliquots of loading matrix were transferred in triplicate to the sample collection plate. The samples were immediately matched with opposite blank buffer to obtain a final volume of 100 μL of 1:1 matrix/dialysis buffer (v/v) in each well. 500 μL of stop solution were added to these TO samples. They were then stored at 2-8° C. pending further processes along with other post-dialysis samples. • 3. To load the dialysis device, an aliquot of 150 μL of the loading matrix was transferred to the donor side of each dialysis well in triplicate, and 150 μL of the dialysis buffer was loaded to the receiver side of the well. The dialysis plate was placed in a humidified incubator at 37° C. with 5% CO2 on a shaking platform that rotated slowly (about 100 rpm) for 4 hours • 4. At the end of the dialysis, aliquots of 50 μL of samples were taken from both the buffer side and the matrix side of the dialysis device. These samples were transferred into new 96-well plates. Each sample was mixed with an equal volume of opposite blank matrix (buffer or matrix) to reach a final volume of 100 μL of 1:1 matrix/dialysis buffer (v/v) in each well. All samples were further processed by adding 500 μL of stop solution containing internal standards. The mixture was vortexed and centrifuged at 4000 rpm for about 20 minutes. An aliquot of 100 μL of supernatant of all the samples was then removed for LC-MS/MS analysis • 5. The single blank samples were prepared by transferring […] of blank matrix to a 96 well plate and adding 50 μL of blank PBS buffer to each well. The blank plasma must match the species of plasma used in the plasma side of the well. Then the matrix-matched samples were further processed by adding 500 μL of stop solution containing internal standards, following the same sample processing method as the dialysis samples.
The % Unbound and % Bound were calculated using the following equations:
% Unbound=100×[F]/[T]; % Bound=100−% Unbound
Where [F] is the analyte concentration or peak area ratio of analyte/internal standard on the buffer (receiver) side of the membrane, [T] is the analyte concentration or peak area ratio of analyte/internal standard on the matrix (donor) side of the membrane, and [T0] is the analyte concentration or the peak area ratio of analyte/internal standard in the loading matrix sample at time zero.

A short description of data set [4]: Pharmacokinetic evaluation in mice. It counts as in vivo. As to conditions: for plasma exposure and bioavailability in mice (in words): conclusion from Table 9; for AUC / Vd / clearance / half-life / Cmax / Tmax: male, mouse, plasma; for AUC / Vd / clearance / half-life / Cmax / Tmax / F: mice. As to the method: The mice pharmacokinetic characteristics of compounds were tested by standard protocols. The candidate compounds were made into clear solution for single intravenous injection (i.v.) and suspension for oral administration (p.o.). Intravenous vehicle is 5% DMSO+10% Solutol+85% Saline. Of which adjusts pH to 3 for B37. While oral vehicle is 0.5% CMCNa for B2 and B22, 5% DMSO+10% Solutol+85% Saline, PH˜3 for B37, 5% DMSO+10% Solutol+85% Saline for B41. The experiment used 6 male mice and 3 mice for intravenous at a dose of 2 mg/kg. Plasma samples were collected at 0 h (before dosing) and 0.083 h, 0.25 h, 0.5 h, 1 h, 2 h, 4 h, 8 h, 24 h after dosing. Another 3 mice were orally administrated with a dose of 10 mg/kg. Plasma samples were collected at 0 h (before dosing) and 0.25 h, 0.5 h, 1 h, 2 h, 4 h, 6 h, 8 h, 24 h after dosing.
Blood samples were placed in tubes containing K2-EDTA and stored on ice until centrifuged. The blood samples were centrifuged at 6800 g for 6 minutes at 2-8° C. within 1 h after collected, and stored frozen at approximately −80° C.
The analytical results were confirmed using quality control samples for intra-assay variation. The accuracy of >66.7% of the quality control samples and 50% of all QC samples at each concentration level were between 80-120% of the known value(s).
Standard set of parameters including area under the curve (AUC(0-t) and AUC(0-∞)), elimination half-live (T1/2), maximum plasma concentration (Cmax), time to reach maximum plasma concentration (Tmax) were calculated using noncompartmental analysis modules in FDA certified pharmacokinetic program Phoenix WinNonlin 7.0 (Pharsight, USA) by the Study Director.

Data set [5] in a line: Plasma protein binding test, mouse. Format: in vitro ADME. On the procedure: as §1, §2

The compound `[2H]C([2H])([2H])n1nc(-c2cccc(Nc3cc(NC(=O)C4CC4)ncc3C(=O)CC)c2OC)cc1P(C)(C)=O` [Compound B22] showed an unbound share (fraction unbound) at 4 h, 2 μM in data set [1] of 0.156. For the same compound, in data set [2], the “kinetic solubility (in words)” value is “good” and the kinetic solubility at 2 h was 91.9 µM (≈ 45.8 µg/mL). Moreover, in data set [3], the “plasma protein binding (in words)” value is on record as “moderate to high” and the free fraction (fraction unbound) at 4 h, 2 μM was 0.051. Also, the “plasma exposure and bioavailability in mice (in words)” value (“plasma exposure and bioavailability” for short) in data set [4] is “good plasma exposure and bioavailability”. Besides, in data set [4] (iv, i.v. 2 mg/kg), the AUC was found to be 1.35 µg·h/mL, the Vd stood at 3.1 L/kg, the clearance was 1.52 L/h/kg and the half-life was 84 min. In data set [4] (po, p.o. 10 mg/kg), the AUC was 6.37 µg·h/mL, the Cmax was determined as 2.63 µg/mL and the Tmax turned out to be 19.8 min. In data set [4] (p.o. 10 mg/kg), this compound returned an F of 94%. In data set [5], this compound showed a fraction unbound at 4 h, 2 μM of 0.03.
Consider `CCC(=O)c1cnc(NC(=O)C2CC2)cc1Nc1cccc(-c2cc(P(=O)(C3CC3)C3CC3)n(C)n2)c1OC` [Compound B37, N-(4-((3-(5-(dicyclopropylphosphoryl)-1-methyl-1H-pyrazol-3-yl)-2-methoxyphenyl)amino)-5-propionylpyridin-2-yl)cyclopropanecarboxamide], for which the “plasma exposure and bioavailability” value in data set [4] is “good plasma exposure and bioavailability”. In data set [4] (iv, i.v. 2 mg/kg), this compound gave an AUC of 2.16 µg·h/mL, a Vd of 0.84 L/kg, a clearance of 0.93 L/h/kg and a half-life of 37.8 min. For the same compound, in data set [4] (po, p.o. 10 mg/kg), the area under the curve (AUC) was determined as 8.42 µg·h/mL, the maximum concentration (Cmax) was found to be 4.25 µg/mL and the Tmax came to 25.2 min. Also, the F in data set [4] (p.o. 10 mg/kg) was determined as 78%.
As for `CCC(=O)c1cnc(NC(=O)C2CC2)cc1Nc1cccc(-c2cc(P(C)(C)=O)n(C)n2)c1OC` [Compound B2, N-(4-((3-(5-(dimethylphosphoryl)-1-methyl-1H-pyrazol-3-yl)-2-methoxyphenyl)amino)-5-propionylpyridin-2-yl)cyclopropanecarboxamide], in data set [1], the fraction unbound at 4 h, 2 μM was 0.119. In data set [2], the “kinetic solubility (in words)” value is given as “good” and the kinetic solubility at 2 h is 52.4 µM (≈ 26 µg/mL). In addition, in data set [3], the “plasma protein binding (in words)” value is reported as “moderate to high” and the free fraction (fraction unbound) at 4 h, 2 μM was 0.048. Moreover, the “plasma exposure and bioavailability” value in data set [4] is “good plasma exposure and bioavailability”. In data set [4] (iv, i.v. 2 mg/kg), the AUC amounted to 1.94 µg·h/mL, the distribution volume (Vd) amounted to 1.5 L/kg, the clearance is 1.03 L/h/kg and the half-life was 60 min. In addition, in data set [4] (po, p.o. 10 mg/kg), the AUC came out at 4.13 µg·h/mL, the highest concentration (Cmax) came out at 1.18 µg/mL and the Tmax was 180 min. The compound further yielded a F in data set [4] (p.o. 10 mg/kg) of 43%. The compound further gave a fraction unbound at 4 h, 2 μM in data set [5] of 0.067.
In turn, `[2H]C([2H])([2H])NC(=O)c1nnc(NC(=O)C2CC2)cc1Nc1cccc(-c2cc(P(=O)(C3CC3)C3CC3)n(C)n2)c1OC` [Compound B41, 6-(cyclopropanecarboxamido)-4-((3-(5-(dicyclopropylphosphoryl)-1-methyl-1H-pyrazol-3-yl)-2-methoxyphenyl)amino)-N-(methyl-d3)pyridazine-3-carboxamide] gave a fraction unbound at 4 h, 2 μM in data set [1] of 0.019. Moreover, in data set [2], the “kinetic solubility (in words)” value is “low to moderate” and the solubility (kinetic) at 2 h came out at 11.3 µM (≈ 6.24 µg/mL). In data set [3], the “plasma protein binding (in words)” value is listed as “moderate to high” and the unbound share (fraction unbound) at 4 h, 2 μM was 0.084. For the same compound, the “plasma exposure and bioavailability” value in data set [4] was “good plasma exposure and bioavailability”. In data set [4] (iv, i.v. 2 mg/kg), this compound gave an AUC of 2.67 µg·h/mL, a Vd of 1.2 L/kg, a clearance of 0.762 L/h/kg and a half-life of 66 min. For the same compound, in data set [4] (po, p.o. 10 mg/kg), the AUC came out at 11.9 µg·h/mL, the Cmax came to 6.57 µg/mL and the Tmax came to 30 min. In addition, the F in data set [4] (p.o. 10 mg/kg) came out at 89%. In data set [5], this compound had a fraction unbound at 4 h, 2 μM of 0.018.

As usually defined, the fraction unbound is the share of the substance not bound to proteins or other matrix. The term solubility (kinetic) denotes the concentration staying in solution when a stock, usually in DMSO, is diluted into the medium. By AUC is commonly meant the area under the concentration-time curve, a measure of exposure. Low readings indicate low exposure, high ones high exposure. Broadly, the Vd is the apparent volume that relates the amount in the body to the concentration in plasma or blood. Low readings indicate little distribution into tissue, high ones wide distribution into tissue. A word on the clearance: it is the rate of elimination divided by the concentration. A high value points to efficient removal. A word on the half-life: it is the time in which the quantity being followed falls by half. Read a high half-life as slow decline. Usually Cmax stands for the maximum level reached in the sampled fluid or tissue. For orientation: Tmax means the time from dosing to the highest level.

Source of the values: patent publication US20240343747A1, “Heteroaryl compounds as inhibitors of TYK2, composition and application thereof” (Accro Bioscience (HK) Limited, priority 2021, published 2024).
